Data on 2 compounds can be found in patent US9682090B2, “Methods for treating and preventing prostate cancer bone metastases” (University of Washington, priority 2014, dated 2017).

The test system of assay [1] is MC3T3-E1 cells. Put plainly: Alizarin Red mineralization assay in MC3T3-E1 cells. It counts as cell-based, mouse. The note with it: PA 25 μM down to 0.2 μM, MC3T3-E1 cells without PAP.
The subject of assay [2] is MC3T3-E1 cells. Put plainly: Inhibition of LuCaP 23.1 CM-induced mineralization in MC3T3-E1 cells (Alizarin Red). The note with it: 5 μM PA. It counts as cell-based, mouse. The method, then: (§1) Cultured cells, HCO or MC3T3-E1, were seeded at 50,000 cells/well in MEM and 10% FBS. MM was added to all cultures 1-2 days after seeding and replaced every other day. MM, LuCaP 23.1 CM (5%, 10%, or 20%), PAP, lyophilized powder obtained from human prostatic fluid (CSI 14633A; CELL SCIENCES®, Canton, Mass.) or phosphonic acid, P-[phenyl[(phenylmethyl)amino]methyl]- (CAS#25881-35-0; AURORA FINE CHEMICALS™ LLC, San Diego, Calif.) was added to cultures typically on day 5-6, before mineralization occurred. After mineralization, cells were fixed in 10% formalin for 20 minutes and then washed. 2% Alizarin Red was added to air-dried plates. After washing, retained dye was extracted in a solution of 20% methanol and 10% acetic acid in water, and absorbance was measured at 405 nm.
(§2) The benzylaminophosphonic acids are inhibitors of PAP (see Beers S A, et al. (1996) Bioorg Med Chem 4:1693-1701). […] To determine if PA would reduce LuCaP 23.1 CM associated mineralization, MC3T3-E1 cells were treated with 5% to 20% LuCaP 23.1 CM with 5 μM PA.

Assay [3] concerns the target T1, PAP (Homo sapiens, UniProt P15309).
T1 sequence (P15309 33-386): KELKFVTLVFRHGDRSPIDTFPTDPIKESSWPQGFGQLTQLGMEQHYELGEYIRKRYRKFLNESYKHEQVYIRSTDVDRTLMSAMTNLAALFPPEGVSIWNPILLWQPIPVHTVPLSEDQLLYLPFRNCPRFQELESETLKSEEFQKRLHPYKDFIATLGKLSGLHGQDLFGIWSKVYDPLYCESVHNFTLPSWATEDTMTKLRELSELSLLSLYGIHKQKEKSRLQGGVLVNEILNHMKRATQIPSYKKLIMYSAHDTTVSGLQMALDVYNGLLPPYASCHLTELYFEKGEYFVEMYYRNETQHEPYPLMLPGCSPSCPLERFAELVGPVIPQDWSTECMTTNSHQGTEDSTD
Put plainly: Inhibition of PAP-induced mineralization in MC3T3-E1 cells (Alizarin Red). The format is cell-based. Further details: PAP, lyophilized powder obtained from human prostatic fluid; purchased CELL SCIENCES, Canton, Mass; CSI 14633A; host or cells: natural protein from human prostatic fluid; added to mouse MC3T3-E1 cells. Particulars: MC3T3-E1 cells treated with 0.05 units of PAP. The method, then:
as §1, §2

The target in assay [4] is T1, PAP. The note with it: Vovk et al. 2008; cited from earlier work.

The structures appear in SMILES notation.

Take `O=P(O)(O)C(NCc1ccccc1)c1ccccc1` (stereo not shown) [PA, [phenyl[(phenylmethyl)amino]methyl]-phosphonic acid]: in the assay with MC3T3-E1 cells [1], the “inhibition of mineralization by PA alone” value was “No significant inhibition”. For the same compound, the effect on mineralization result in the assay on MC3T3-E1 cells [2] (5% LuCaP 23.1 CM), in the assay with MC3T3-E1 cells [2] (10% LuCaP 23.1 CM) and with MC3T3-E1 cells [2] (20% LuCaP 23.1 CM) was “significantly reduced mineralization” each time. Also, the decrease in mineralization stood at 97.9% at PAP [3] (3.15 μM PA), 92.1% on PAP [3] (6.25 μM PA), 95.6% on PAP [3] (12.5 μM PA) and 97.6% at PAP [3] (25 μM PA). Besides, the “lowest PA concentration with significant effect on mineralization” value at PAP [3] (PA tested 25 μM to 0.2 μM) was 0.4 µM.

Consider `O=P(O)(O)[C@@H](NCc1ccccc1)c1ccccc1` (single isomer, unassigned) [R enantiomer of P-[phenyl[(phenylmethyl)amino]methyl]-, P-[phenyl[(phenylmethyl)amino]methyl]-], for which the PAP inhibition entry at PAP [4] is recorded as “potent inhibitor”.
